Data on three compounds can be found in PubChem BioAssay AID493161 (The Scripps Research Institute Molecular Screening Center, 2011).

This test in a line: cell survival reduction, dose-dependent – absorbance, serum-free or FCS media, cytotoxicity control for LYPLA1/LYPLA2 dual inhibitor project, dose response (AID 493161).

Calls of active or inactive are those of the source. How the calls were made is not given here.

On to `CCC1CCCCN1C(=O)n1ncc(C(O)(c2ccccc2)c2ccccc2)n1` (stereo unspecified), for which the CC50 (commonly the concentration that lowers cell viability or growth by half) reads like this: (serum-free media) > 50 µM (inactive); (with FCS) > 50 µM (inactive).

`CC(C)(C)C1CCN(C(=O)n2ncc(C(O)(c3ccccc3)c3ccccc3)n2)CC1`: the CC50 was > 35 µM (inactive) (serum-free media) and > 50 µM (inactive) (with FCS).

As for `CC(C)(O)c1cnn(C(=O)N2CCC(C(C)(C)C)CC2)n1`, the CC50 by setting is: (serum-free media) greater than 9 µM; (with FCS) > 27 µM (inactive).
